In US7799913B2, “Carbonylbenzoxazine compounds for enhancing glutamatergic synaptic responses” (Cortex Pharmaceuticals, Inc., priority 2001, dated 2010):

Experiments:
[1] = eight-arm radial maze task for cognition/memory enhancement; format: in vivo
Description: This task has been described previously (Staubli et al., PNAS 91:777-781 (1994)) and Lynch and Rogers, PCT Pubn. No. WO 94/02475).
This test has been described previously by Staubli et al., PNAS 91:777-781 (1994) and Lynch and Rogers, U.S. Pat. No. 5,747,492.

AMPA receptor = assay: steady-state current induced by glutamate in cortical neurons in primary culture; format: cell-based, rat
Protocol: (§1) The physiological effects of invention compounds were tested in vitro on primary cultures of rat cortical neurons as described by Hamill, O P, et al. in Pflügers Arch 391: 85-100 (1981) or on slices of rat hippocampus according to the following procedure. Excitatory responses (field EPSPs) were measured in hippocampal slices, which were maintained in a recording chamber continuously perfused with artificial cerebrospinal fluid (ACSF). During a 15-30 minute interval, the perfusion medium was switched to one containing various concentrations of the test compounds. Responses collected immediately before and at the end of drug perfusion were superimposed in order to calculate the percent increase in EPSP amplitude.

AMPA receptors = assay: field EPSP amplitude in field CA1 of rat hippocampal slice; format: cell-based
Description: The field EPSP, (excitatory post-synaptic potential) recorded in field CA1 after stimulation of CA3 axons is known to be mediated by AMPA receptors, which are present in the synapses (Kessler et al., Brain Res. 560: 337-341 (1991)). Drugs that selectively block the receptor selectively block the field EPSP (Muller et al., Science, supra). […] These effects are mirrored in the field EPSP (see, for example, Staubli et al., Psychobiology, supra; Xiao et al., Hippocampus, supra; Staubli et al., Hippocampus 2: 4958 (1992)).
To obtain the data shown in Table I, a bipolar nichrome stimulating electrode was positioned in the dendritic layer (stratum radiatum) of the hippocampal subfield CA1 close to the border of subfield CA3, as described in Example 64. Current pulses (0.1 msec) through the stimulating electrode activate a population of the Schaffer-commissural (SC) fibers, which arise from neurons in the subdivision CA3 and terminate in synapses on the dendrites of CA1 neurons. Activation of these synapses causes them to release the transmitter glutamate. Glutamate binds to post-synaptic AMPA receptors, which then transiently open an associated ion channel and permit a sodium current to enter the postsynaptic cell. This current results in a voltage in the extracellular space (the field EPSP), which is recorded by a high impedance recording electrode positioned in the middle of the stratum radiatum of CA1.
The intensity of the stimulation current was adjusted to produce half-maximal EPSPs (typically about 1.5-2.0 mV). Paired stimulation pulses were given every 40 sec with an interpulse interval of 200 msec, as described further in Example 64.
Hippocampal slices were maintained in a recording chamber continuously perfused with artificial cerebrospinal fluid (ACSF). During 15-30 minute intervals, the perfusion medium was switched to one containing various concentrations of the test compounds. Responses collected immediately before and at the end of drug perfusion were superimposed in order to calculate the percent increase in EPSP amplitude.
as §1
To conduct these tests, the hippocampus was removed from anesthetized, 2 month old Sprague-Dawley rats and in vitro slices (400 μm thick) were prepared and maintained in an interface chamber at 35° C. using conventional techniques [see, for example, Dunwiddie and Lynch, J. Physiol. 276: 353-367 (1978)]. The chamber was constantly perfused at 0.5 mL/min with ACSF containing (in mM): NaCl 124, KCl 3, KH2PO4 1.25, MgSO4 2.5, CaCl2 3.4, NaHCO3 26, glucose 10 and L-ascorbate 2. A bipolar nichrome stimulating electrode was positioned in the dendritic layer (stratum radiatum) of the hippocampal subfield CA1 close to the border of subfield CA3.
Current pulses (0.1 msec) through the stimulating electrode activate a population of the Schaffer-commissural (SC) fibers, which arise from neurons in the subdivision CA3 and terminate in synapses on the dendrites of CA1 neurons. Activation of these synapses causes them to release the transmitter glutamate. Glutamate binds to the post-synaptic AMPA receptors, which then transiently open an associated ion channel and permit a sodium current to enter the postsynaptic cell. […]

| SMILES | potency relative to CX516 (times more potent) ([1]; eight-arm radial maze MEDC) | EC2X: concentration of modulator required to double the steady state current (AMPA receptor; 300 μM glutamate on cultured neurons) [µM] | EC2x: concentration of compound that causes at least a doubling of the steady-state current (AMPA receptor; cortical neurons in primary culture, 300 μM glutamate) [µM] | MEDC: Minimum Effective Dose that produces a statistically significant improvement in behavior ([1]; eight-arm radial maze task) [mg/kg] | Amp: concentration of compound that causes a 10% increase in the amplitude of the field EPSP (AMPA receptors; field CA1 of rat hippocampal slice, estimated by interpolation or extrapolation) [µM] | AMP: concentration of modulator that increases the amplitude of the fEPSP by 10% (AMPA receptors; rat hippocampal slice) [µM] |
| --- | --- | --- | --- | --- | --- | --- |
| O=C1c2cc3c(cc2OC2CCCN12)C(=O)N1CCCC1O3 [Example 1, (R,S), (R,S)-3aH,9aH-pyrrolidino[2,1-b]pyrrolidino[2″,1″-2′,3′](1,3-oxazino)[5′,6′-2,1]benzo[4,5-e]1,3-oxazaperhydroine-6,12-dione] | 250 |  |  |  |  |  |
| O=C(c1ccc2nccnc2c1)N1CCCCC1 [CX516, 1-(quinoxaline-6-ylcarbonyl)piperidine, reference compound] |  | 830 | 830 | 12.5 | 80 | 80 |
